One assay concerns anesthetized dog. The experiment in a line: heart rate and mean arterial pressure in the anesthetized dog. Particulars: doses of from 100 to 400 ug/kg. It is filed as in vivo. Here is the method: The compounds of formula I produce antihypertensive effects in mouse and dog with concomitant reduction of the heart rate.
For example, in the anesthetized dog, compound 1 caused a heart rate reduction of from 9 to 23% and a reduction of the mean arterial pressure of from 3 to 15% at doses of from 100 to 400 ug/kg; at the same doses diastereoisomer A caused a heart rate reduction of from 17 to 30% and a mean arterial pressure reduction of from 12 to 25%, respectively.

A further assay deals with T1, beta₁ heart receptors (Mus musculus, UniProt P34971).
T1 construct: from tissue; host or cells: mouse heart
T1 sequence (P34971 whole entry): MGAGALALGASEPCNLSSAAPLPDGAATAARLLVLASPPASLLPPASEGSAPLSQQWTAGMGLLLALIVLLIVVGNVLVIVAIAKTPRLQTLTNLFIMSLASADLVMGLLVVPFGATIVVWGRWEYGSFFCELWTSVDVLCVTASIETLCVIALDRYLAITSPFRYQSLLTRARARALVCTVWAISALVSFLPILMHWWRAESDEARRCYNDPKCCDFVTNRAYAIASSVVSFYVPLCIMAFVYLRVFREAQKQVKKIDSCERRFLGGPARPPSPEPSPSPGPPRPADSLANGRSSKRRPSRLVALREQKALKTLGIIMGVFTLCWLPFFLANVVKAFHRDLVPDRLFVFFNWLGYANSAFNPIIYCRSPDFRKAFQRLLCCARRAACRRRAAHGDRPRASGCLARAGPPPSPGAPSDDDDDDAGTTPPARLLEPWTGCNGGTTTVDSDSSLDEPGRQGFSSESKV
Briefly: binding test, beta1 heart receptors. The source says: (§1) Moreover, the beta-blocking activity has been tested by means of the binding test both towards beta₁ heart receptors and towards beta₂ lung receptor in mouse according to the methods described in the J. Biol. Chem., 253, 5090, (1978) and in the Br. j. Pharmacol., 68, 57, (1980).

The next assay deals with rabbit mesenteric artery. The experiment in a line: calcium-antagonist activity, rabbit mesenteric artery test (antagonism of 3 mM Ca++ in Krebs depolarizer). Particulars: Ca++ submaximal concentration 3mM, read-out: IC₅₀. The procedure:
Calcium-antagonist activity of the compounds of formula I has been tested as capability of antagonizing the effect of Ca⁺⁺ submaximal concentrations (3mM) on preparations of rabbit mesenteric artery in Krebs depolarizer, prepared according to Towart "J. Cardiovasc. Pharmacol. 4, 895, (1982)".
The compounds of this invention, tested as calcium antagonist agents on the rabbit mesnteric artery show an IC₅₀ of from 10 to 200 (nM); Ki affinity for beta₁ receptors is of from 30 to 2000 (nM) and for beta₂ receptors is of from 20 to 5000 (nM).

The next assay addresses T2, beta₂ lung receptor (Mus musculus, UniProt P18762).
T2 construct: Ki (nM) mouse lung beta₂ receptors; from tissue; host or cells: mouse lung
The experiment in a line: binding test, beta2 lung receptors.
Source text: as §1

In general, Ki refers to the dissociation constant of the complex between target and ligand, obtained from inhibition or displacement. Read a low Ki as a stronger hold on the target.

Where two headings read alike, the source gives them in different places.

T2 sequence (P18762 whole entry): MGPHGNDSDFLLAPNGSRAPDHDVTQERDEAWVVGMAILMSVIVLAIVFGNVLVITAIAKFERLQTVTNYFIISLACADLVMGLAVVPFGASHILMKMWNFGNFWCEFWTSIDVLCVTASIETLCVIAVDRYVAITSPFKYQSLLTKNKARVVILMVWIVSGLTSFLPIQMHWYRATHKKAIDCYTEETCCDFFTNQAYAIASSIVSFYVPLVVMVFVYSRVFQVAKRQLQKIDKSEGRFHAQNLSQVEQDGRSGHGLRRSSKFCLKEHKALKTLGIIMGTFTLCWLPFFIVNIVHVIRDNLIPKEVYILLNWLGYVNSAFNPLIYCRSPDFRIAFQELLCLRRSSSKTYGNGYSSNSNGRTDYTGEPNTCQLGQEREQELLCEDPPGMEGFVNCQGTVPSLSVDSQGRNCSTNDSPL

For the compound `CCOC(=O)C1=C(C)NC(CN(C)CC(C)(C)NCC(O)COc2ccccc2OC)=C(C(=O)OCC)C1c1cccc([N+](=O)[O-])c1` (single isomer, unassigned) [diastereoisomer A], the “duration of hypotensive effect and bradycardia” value in the assay with anesthetized dog is “lasting over five hours”. The Ki at beta₁ heart receptors stood at 600 nM; on beta₂ lung receptor, 2050 nM. For the same compound, the IC50 in the assay with rabbit mesenteric artery turned out to be 15 nM.

As for `CCOC(=O)C1=C(C)NC(CN(C)CC(C)(C)NCC(O)COc2ccccc2OC)=C(C(=O)OCC)C1c1cccc([N+](=O)[O-])c1` (single isomer, unassigned) [diastereoisomer B], the Ki at beta₁ heart receptors stood at 165 nM; at beta₂ lung receptor it was 560 nM. Also, the IC50 in the assay on rabbit mesenteric artery stood at 120 nM.

As for `CCOC(=O)C1=C(C)NC(CN(C)CC(C)(C)NCC(O)COc2ccccc2OC)=C(C(=O)OCC)C1c1cccc([N+](=O)[O-])c1` (stereo not shown) [Compound 1, ethyl 1,4-dihydro-6-methyl-2-(N-methyl-N-(2-(2-hydroxy-3-(2-methoxyphenoxy)-propylamino)-2-methylpropyl)aminomethyl)-4-(3-nitrophenyl)-3,5-pyridinedicarboxylate], in the assay on rabbit mesenteric artery (Oryctolagus cuniculus), the IC50 was 47 nM.

In the case of `CC(C)NCC(O)COc1ccc(CC(N)=O)cc1` (stereo not shown) [atenolol, reference compound], the inhibition constant Ki amounted to 840 nM at beta₁ heart receptors and 18000 nM on beta₂ lung receptor.

The record behind these values is EP0352863A2, “1,4-Dihydropyridine dicarboxylic acid derivatives” (ZAMBON GROUP S.p.A., priority 1988, dated 1990).
